Target: FXR (Homo sapiens (Human), UniProt Q96RI1)
Experiment: FXR EC50 (FXR agonist potency reported with each Example)
Type: cell-based

FXR, sequence (Q96RI1 262-486): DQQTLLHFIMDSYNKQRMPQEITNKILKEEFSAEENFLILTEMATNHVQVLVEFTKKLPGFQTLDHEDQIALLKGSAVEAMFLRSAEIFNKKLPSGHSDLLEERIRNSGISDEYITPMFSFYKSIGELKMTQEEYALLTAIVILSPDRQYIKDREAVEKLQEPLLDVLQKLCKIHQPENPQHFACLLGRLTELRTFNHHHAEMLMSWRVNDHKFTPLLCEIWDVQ

SMILES | EC50 [nM]
O=C(N(CC12CCC(c3noc(C(F)F)n3)(CC1)CC2)c1cccc(-c2noc(C(F)F)n2)c1)C12CC(F)(C1)C2 [Example 184, N-((4-(5-(difluoromethyl)-1,2,4-oxadiazol-3-yl)bicyclo[2.2.2]octan-1-yl)methyl)-N-(3-(5-(difluoromethyl)-1,2,4-oxadiazol-3-yl)phenyl)-3-fluorobicyclo[1.1.1]pentane-1-carboxamide] | 58
CC(C)(O)c1coc(-c2cccc(N(CC34CCC(c5nc(C6CC6)no5)(CC3)CC4)C(=O)C3CCC(F)(F)C3)c2)n1 (stereo not drawn) [Example 18, N-((4-(3-cyclopropyl-1,2,4-oxadiazol-5-yl)bicyclo[2.2.2]octan-1-yl)methyl)-3,3-difluoro-N-(3-(4-(2-hydroxypropan-2-yl)oxazol-2-yl)phenyl)cyclopentane-1-carboxamide] | 154
O=C(N(CC12CCC(c3nc(C4CC4)no3)(CC1)CC2)c1cccc(-c2nnc(C3CC3)o2)c1)C12CC(F)(C1)C2 [Example 86, N-((4-(3-cyclopropyl-1,2,4-oxadiazol-5-yl)bicyclo[2.2.2]octan-1-yl)methyl)-N-(3-(5-cyclopropyl-1,3,4-oxadiazol-2-yl)phenyl)-3-fluorobicyclo[1.1.1]pentane-1-carboxamide] | 123
CCOc1nnc(-c2cccc(N(CC34CCC(c5nc(C6CC6)no5)(CC3)CC4)C(=O)C3CCC(F)(F)C3)c2)o1 (stereo not drawn) [Example 55, N-((4-(3-cyclopropyl-1,2,4-oxadiazol-5-yl)bicyclo[2.2.2]octan-1-yl)methyl)-N-(3-(5-ethoxy-1,3,4-oxadiazol-2-yl)phenyl)-3,3-difluorocyclopentane-1-carboxamide] | 127
O=C(C1CC(F)(F)C1)N(CC12CCC(c3nc(CC4CC4)no3)(CC1)CC2)c1cccc(-c2nc(CC3CC3)no2)c1 [Example 63, N-((4-(3-(cyclopropylmethyl)-1,2,4-oxadiazol-5-yl)bicyclo[2.2.2]octan-1-yl)methyl)-N-(3-(3-(cyclopropylmethyl)-1,2,4-oxadiazol-5-yl)phenyl)-3,3-difluorocyclobutane-1-carboxamide] | 562
CC1(c2nc(-c3cccc(N(CC45CCC(c6noc(C(F)F)n6)(CC4)CC5)C(=O)C45CC(F)(C4)C5)c3)no2)CC1 [Example 178, N-((4-(5-(difluoromethyl)-1,2,4-oxadiazol-3-yl)bicyclo[2.2.2]octan-1-yl)methyl)-3-fluoro-N-(3-(5-(1-methylcyclopropyl)-1,2,4-oxadiazol-3-yl)phenyl)bicyclo[1.1.1]pentane-1-carboxamide] | 73
CCOC(=O)c1coc(-c2cccc(N(CC34CCC(c5nc(C6CC6)no5)(CC3)CC4)C(=O)C34CC(F)(C3)C4)c2)n1 [Example 13, Ethyl 2-(3-(N-((4-(3-cyclopropyl-1,2,4-oxadiazol-5-yl)bicyclo[2.2.2]octan-1-yl)methyl)-3-fluorobicyclo[1.1.1]pentane-1-carboxamido)phenyl)oxazole-4-carboxylate] | 512
O=C(N(CC12CCC(c3nc(C4CC4)no3)(CC1)CC2)c1cccc(-c2cnn(CC(F)(F)F)c2)c1)C12CC(F)(C1)C2 [Example 162, N-((4-(3-cyclopropyl-1,2,4-oxadiazol-5-yl)bicyclo[2.2.2]octan-1-yl)methyl)-3-fluoro-N-(3-(1-(2,2,2-trifluoroethyl)-1H-pyrazol-4-yl)phenyl)bicyclo[1.1.1]pentane-1-carboxamide] | 116
O=C(N(CC12CCC(c3nc(C4CC4)cs3)(CC1)CC2)c1cccc(-c2cnc(C3CC3)o2)c1)C12CC(F)(C1)C2 [Example 97, N-(3-(2-cyclopropyloxazol-5-yl)phenyl)-N-((4-(4-cyclopropylthiazol-2-yl)bicyclo[2.2.2]octan-1-yl)methyl)-3-fluorobicyclo[1.1.1]pentane-1-carboxamide] | 70
CCCc1ncc(-c2cccc(N(CC34CCC(c5nc(C6CC6)no5)(CC3)CC4)C(=O)C3CC(C(F)F)C3)c2)o1 (stereo not drawn) [Example 28, N-((4-(3-cyclopropyl-1,2,4-oxadiazol-5-yl)bicyclo[2.2.2]octan-1-yl)methyl)-3-(difluoromethyl)-N-(3-(2-propyloxazol-5-yl)phenyl)cyclobutane-1-carboxamide] | 248
CC(C)(C)c1nc(C23CCC(CN(C(=O)C45CC(F)(C4)C5)c4cccc(-c5noc(C6(C)CC6)n5)c4)(CC2)CC3)no1 [Example 177, N-((4-(5-(tert-butyl)-1,2,4-oxadiazol-3-yl)bicyclo[2.2.2]octan-1-yl)methyl)-3-fluoro-N-(3-(5-(1-methylcyclopropyl)-1,2,4-oxadiazol-3-yl)phenyl)bicyclo[1.1.1]pentane-1-carboxamide] | 33
Cn1nc(C23CCC(CN(C(=O)C45CC(F)(C4)C5)c4cccc(-c5noc(C(F)F)n5)c4)(CC2)CC3)cc1C1CC1 [Example 168, N-((4-(5-cyclopropyl-1-methyl-1H-pyrazol-3-yl)bicyclo[2.2.2]octan-1-yl)methyl)-N-(3-(5-(difluoromethyl)-1,2,4-oxadiazol-3-yl)phenyl)-3-fluorobicyclo[1.1.1]pentane-1-carboxamide] | 111
COC1(c2nc(-c3cccc(N(CC45CCC(c6nc(C7CC7)no6)(CC4)CC5)C(=O)C45CC(F)(C4)C5)c3)no2)CC1 [Example 147, N-((4-(3-cyclopropyl-1,2,4-oxadiazol-5-yl)bicyclo[2.2.2]octan-1-yl)methyl)-3-fluoro-N-(3-(5-(1-methoxycyclopropyl)-1,2,4-oxadiazol-3-yl)phenyl)bicyclo[1.1.1]pentane-1-carboxamide] | 79
CCCc1ncc(-c2cccc(N(CC34CCC(c5cc(C(F)(F)F)ccn5)(CC3)CC4)C(=O)C34CC(F)(C3)C4)c2)o1 [Example 52, 3-fluoro-N-(3-(2-propyloxazol-5-yl)phenyl)-N-((4-(4-(trifluoromethyl)pyridin-2-yl)bicyclo[2.2.2]octan-1-yl)methyl)bicyclo[1.1.1]pentane-1-carboxamide] | 242
O=C(C1CC(F)(F)C1)N(CC12CCC(c3nc(C4CC4)no3)(CC1)OC2)c1cccc(-c2cc(C3CC3)on2)c1 [Example 200, N-((1-(3-cyclopropyl-1,2,4-oxadiazol-5-yl)-2-oxabicyclo[2.2.2]octan-4-yl)methyl)-N-(3-(5-cyclopropylisoxazol-3-yl)phenyl)-3,3-difluorocyclobutane-1-carboxamide] | 526
O=C(C1CC(C(F)F)C1)N(CC12CCC(c3nc(C4CC4)no3)(CC1)CC2)c1cccc(-c2cc(C3CC3)on2)c1 (stereo not drawn) [Example 58, N-((4-(3-cyclopropyl-1,2,4-oxadiazol-5-yl)bicyclo[2.2.2]octan-1-yl)methyl)-N-(3-(5-cyclopropylisoxazol-3-yl)phenyl)-3-(difluoromethyl)cyclobutane-1-carboxamide] | 39
N#CC1(c2ccc(C34CCC(CN(C(=O)C56CC(F)(C5)C6)c5cccc(-c6nc(C7CC7)no6)c5)(CC3)CO4)cc2)CC1 [Example 146, N-((1-(4-(1-cyanocyclopropyl)phenyl)-2-oxabicyclo[2.2.2]octan-4-yl)methyl)-N-(3-(3-cyclopropyl-1,2,4-oxadiazol-5-yl)phenyl)-3-fluorobicyclo[1.1.1]pentane-1-carboxamide] | 334
COc1cc(-c2cccc(N(CC34CCC(c5nc(C6CC6)no5)(CC3)CC4)C(=O)C34CC(F)(C3)C4)c2)ccn1 [Example 229, N-((4-(3-cyclopropyl-1,2,4-oxadiazol-5-yl)bicyclo[2.2.2]octan-1-yl)methyl)-3-fluoro-N-(3-(2-methoxypyridin-4-yl)phenyl)bicyclo[1.1.1]pentane-1-carboxamide] | 154
O=C(N(CC12CCC(c3nc(C4CC4)no3)(CC1)CC2)c1cccc(-c2cnn(C(F)F)c2)c1)C12CC(F)(C1)C2 [Example 160, N-((4-(3-cyclopropyl-1,2,4-oxadiazol-5-yl)bicyclo[2.2.2]octan-1-yl)methyl)-N-(3-(1-(difluoromethyl)-1H-pyrazol-4-yl)phenyl)-3-fluorobicyclo[1.1.1]pentane-1-carboxamide] | 43
CCOC(=O)c1nc(-c2cccc(N(CC34CCC(c5nc(C6CC6)no5)(CC3)CC4)C(=O)C34CC(F)(C3)C4)c2)cs1 [Example 29, Ethyl 4-(3-(N-((4-(3-cyclopropyl-1,2,4-oxadiazol-5-yl)bicyclo[2.2.2]octan-1-yl)methyl)-3-fluorobicyclo[1.1.1]pentane-1-carboxamido)phenyl)thiazole-2-carboxylate] | 1090
CC(N(C(=O)C12CC(F)(C1)C2)c1cccc(-c2cnc(C3CC3)o2)c1)C12CCC(c3nc(C4CC4)no3)(CC1)CC2 (single isomer, unassigned) [Example 215, N-(1-(4-(3-cyclopropyl-1,2,4-oxadiazol-5-yl)bicyclo[2.2.2]octan-1-yl)ethyl)-N-(3-(2-cyclopropyloxazol-5-yl)phenyl)-3-fluorobicyclo[1.1.1]pentane-1-carboxamide] | 269
O=C(N(CC12CCC(c3ccc(C(F)(F)F)cn3)(CC1)CC2)c1cccc(-c2noc(C3CC3)n2)c1)C12CC(F)(C1)C2 [Example 185, N-(3-(5-cyclopropyl-1,2,4-oxadiazol-3-yl)phenyl)-3-fluoro-N-((4-(5-(trifluoromethyl)pyridin-2-yl)bicyclo[2.2.2]octan-1-yl)methyl)bicyclo[1.1.1]pentane-1-carboxamide] | 508
O=C(N(CC12CCC(c3nc(C4CC4)no3)(CC1)CC2)c1cccc(-n2cc(C3CC3)nn2)c1)C12CC(F)(C1)C2 [Example 219, N-((4-(3-cyclopropyl-1,2,4-oxadiazol-5-yl)bicyclo[2.2.2]octan-1-yl)methyl)-N-(3-(4-cyclopropyl-1H-1,2,3-triazol-1-yl)phenyl)-3-fluorobicyclo[1.1.1]pentane-1-carboxamide] | 98.4
O=C(C1CC(C(F)F)C1)N(CC12CCC(c3nnc(C4CC4)o3)(CC1)CC2)c1cccc(-c2nnc(C3CC3)o2)c1 (stereo not drawn) [Example 134, N-((4-(5-cyclopropyl-1,3,4-oxadiazol-2-yl)bicyclo[2.2.2]octan-1-yl)methyl)-N-(3-(5-cyclopropyl-1,3,4-oxadiazol-2-yl)phenyl)-3-(difluoromethyl)cyclobutane-1-carboxamide] | 636

From US11254663B2 (BRISTOL-MYERS SQUIBB COMPANY, priority 2019, dated 2022)
